Patent US10870625B2, “Zwitterionic propargyl-linked antifolates useful for treating bacterial infections” (THE UNIVERSITY OF CONNECTICUT, priority 2016, dated 2020)
Values after ≈ are worked out from the molar mass of the structure shown. Like-named read-outs stand apart in the source and are kept apart here. Marks after values point to notes of the source that are not given here.

Legend:
[1] = tested on: S. aureus ATCC strain 43300; test: microbe, parasite or virus in culture; assay type: cell-based, Staphylococcus aureus; settings: for MIC Sa43300: Table 12, wild-type strain
[2] = tested on: Sa(H30N) strain
[3] = target: S. aureus (Sa) DHFR (Staphylococcus aureus, UniProt P0A017); assay type: biochemical; settings: Table 2
[4] = target: E. coli (Ec) DHFR (Escherichia coli (strain K12), UniProt P0ABQ4); test: E. coli DHFR enzyme inhibition (NADPH oxidation, 340 nm); assay type: biochemical
[5] = tested on: E. coli (ATCC 25922); test: E. coli MIC, microdilution broth assay; assay type: cell-based, Escherichia coli
Protocol: Minimum inhibitory concentrations were determined using E. coli (ATCC 25922) and the microdilution broth assay with an inoculum of […] CFU/mL in Isosensitest Broth (Oxoid).

[6] = tested on: E. coli NR698; assay type: cell-based, Escherichia coli
[7] = target: MtbDHFR (Mycobacterium tuberculosis (strain ATCC 25618 / H37Rv), UniProt P9WNX1); test: M. tuberculosis DHFR enzyme inhibition; assay type: biochemical
[8] = tested on: Mtb; test: M. tuberculosis MIC, microtiter broth dilution (Table 6); assay type: cell-based, Mycobacterium tuberculosis
Protocol: (provided by Leonid Heifets).
Each isolate was tested in duplicate.

| SMILES | MIC Sa43300 [1] [µg/mL] | MIC Sa(H30N) [2] [µg/mL] | IC50 [3] [nM] | IC50 ([4]; Table 2) [nM] | MIC S. aureus 43300 [1] [µg/mL] | MIC E. coli 25922 ([5]; Table 2, wild-type E. coli) | MIC E. coli NR698 ([6]; Table 2) [µg/mL] | IC50 ([4]; Table 3) [nM] | MIC E. coli 25922 ([5]; Table 3) [µg/mL] | MIC E. coli NR698 ([6]; Table 3) [µg/mL] | other results |
| --- | --- | --- | --- | --- | --- | --- | --- | --- | --- | --- | --- |
| CCc1nc(N)nc(N)c1C#CC(C)c1cc(-c2ccncc2)ccc1OC (racemic) [C, reference compound] | 0.625 (≈ 1.67 µM) | 2.5 (≈ 6.69 µM) |  |  |  |  |  |  |  |  |  |
| CCc1nc(N)nc(N)c1C#CCc1cc(-c2ccccc2C(=O)O)ccc1OC [Compound 13] |  |  | 359 | 195 | >20 | >32 µg/mL | 20 (≈ 49.7 µM) |  |  |  |  |
| CCc1nc(N)nc(N)c1C#CCc1cc(-c2ccccc2C(=O)O)ccc1OC [Compound 14] |  |  | 157 | 526 | 0.625 (≈ 1.55 µM) | >20 µg/mL | 0.0391 (≈ 0.0972 µM) |  |  |  | IC50 [7]: 311 nM; MIC Mtb [8]: 1 µg/mL (≈ 2.48 µM) |
| CCc1nc(N)nc(N)c1C#CCc1cc(OC)cc(-c2ccc(C(=O)O)cc2)c1 [Compound 16] | 0.0195 (≈ 0.0485 µM) | 0.1563 (≈ 0.388 µM) |  | 507 | 0.0195 (≈ 0.0485 µM) | >20 µg/mL | 0.0049 (≈ 0.0122 µM) |  |  |  |  |
| CCc1nc(N)nc(N)c1C#C[C@@H](C)c1cc(-c2ccc(C(=O)O)cc2)ccc1OC [Compound 30] |  |  |  |  | 0.0195 (≈ 0.0468 µM) | 20 µg/mL (≈ 48 µM) | 0.0012 (≈ 0.00288 µM) |  |  |  |  |
| CCc1nc(N)nc(N)c1C#C[C@H](C)c1cc(OC)cc(-c2ccc(C(=O)O)cc2)c1 [Compound 31] | 0.0098 (≈ 0.0235 µM) | 0.0781 (≈ 0.188 µM) |  |  | 0.0098 (≈ 0.0235 µM) | 10 µg/mL (≈ 24 µM) | 0.0024 (≈ 0.00576 µM) |  |  |  |  |
| CCc1nc(N)nc(N)c1C#C[C@@H](C)c1cc(OC)cc(-c2ccc(C(=O)O)cc2)c1 [Compound 32] | 0.0098 (≈ 0.0235 µM) | 0.0781 (≈ 0.188 µM) |  |  | 0.0098 (≈ 0.0235 µM) | 10 µg/mL (≈ 24 µM) | 0.0024 (≈ 0.00576 µM) |  |  |  |  |
| CCc1nc(N)nc(N)c1C#C[C@H](C)c1cc(-c2ccc(C(=O)OC)cc2)ccc1OC [Compound 33] |  |  | 22 | 34 |  | >20* μg/mL | 0.156 (≈ 0.362 µM) |  |  |  | MIC S. aureus 43300 ([1]; Table 2): 0.625 µg/mL (≈ 1.45 µM) |
| CCc1nc(N)nc(N)c1C#C[C@@H](C)c1cc(-c2ccc(C(=O)OC)cc2)ccc1OC [Compound 34] |  |  | 205 | 172 |  | >20* μg/mL | 1.875 (≈ 4.36 µM) |  |  |  | MIC S. aureus 43300 ([1]; Table 2): 10 µg/mL (≈ 23.2 µM) |
| CCc1nc(N)nc(N)c1C#CCc1cc2c(c(-c3ccc(O)cc3)c1)OCO2 [Compound 37] |  |  |  |  |  |  |  | 2500 | 0.625 (≈ 1.61 µM) | 0.002 (≈ 0.00515 µM) |  |
| CCc1nc(N)nc(N)c1C#CCc1cc2c(c(-c3ccc(O)c(F)c3)c1)OCO2 [Compound 38] |  |  |  |  |  |  |  | 1250 | 0.625 (≈ 1.54 µM) | 0.001 (≈ 0.00246 µM) |  |
| CCc1nc(N)nc(N)c1C#CCc1cc2c(c(-c3cc(F)c(O)c(F)c3)c1)OCO2 [Compound 39] |  |  |  |  |  |  |  | 625 | 0.625 (≈ 1.47 µM) | 0.001 (≈ 0.00236 µM) |  |
| CCc1nc(N)nc(N)c1C#CCc1cc2c(c(-c3cc(F)c(OC)c(F)c3)c1)OCO2 [Compound 40] |  |  |  |  |  |  |  | > 20000 | 5 (≈ 11.4 µM) | 0.78 (≈ 1.78 µM) |  |
